Key:
Influenza A virus [1] = assay: Antiviral activity against Amantadine -resistant Influenza A virus (A/Washington/29/2009 (H1N1)) infected in MDCK cells overexpressing ST6Gal I assessed as inhibition of viral replication by plaque assay; format: functional, organism-based
Influenza A virus [2] = assay: Antiviral activity against Oseltamivir-resistant Influenza A virus (A/North Carolina/39/2009 (H1N1)) infected in MDCK cells over expressing ST6Gal I assessed as inhibition of viral replication by plaque assay; format: functional, organism-based
Influenza A virus [3] = assay: Antiviral activity against Amantadine-resistant Influenza A virus (A/WSN/1933 (H1N1)) infected in MDCK cells over expressing ST6Gal I assessed as inhibition of viral replication by plaque assay; format: functional, organism-based
[4] = Selectivity index, ratio of CC50 for MDCK cells to EC50 for Amantadine-resistant Influenza A virus (A/Washington/29/2009 (H1N1)) infected in MDCK cells; format: toxicity, cell-based; conditions: dog, read-out: Ratio CC50/EC50
[5] = Selectivity index, ratio of CC50 for MDCK cells to EC50 for Amantadine-resistant Influenza A virus (A/WSN/1933 (H1N1)) infected in MDCK cells; format: toxicity, cell-based; conditions: dog, read-out: Ratio CC50/EC50

Q: Which EC50 (Influenza A virus [1]) does the source give for `Cc1cc(OCc2nnc(SC3CCCC3)n2-c2cccnc2)ccc1-c1ccc(S(C)(=O)=O)cc1` here?
A: 30 nM

Q: And the EC50 (Influenza A virus [2])?
A: 30 nM

Q: And the EC50 (Influenza A virus [3])?
A: 30 nM

Q: What about the selectivity ratio [4] of the same compound?
A: 50

Q: And the selectivity ratio [5]?
A: 50
